# Assay results published in US8334236B2, “Ring-fused 2-pyridone derivatives and herbicides” (Kumiai Chemical Industry Co., Ltd., priority 2009, dated 2012).
# Test system: Echinochloa oryzicola Vasing
# Assay: Test Example 1: herbicidal effects in paddy field soil treatment
# Type: in vivo
# Design: scale not given here
# Settings: 1000 g active ingredient per hectare, 21st day after treatment
# Method: (§1) 100-cm^2 plastic pots were filled with paddy field soil. After puddling and leveling, seeds of Echinochloa oryzicola Vasing, Monochoria vaginalis (Burm. f.) Presl var. plantaginea (Roxb.) Solms-Laub., and Scirpus juncoides Roxb. var. ohwianus. T. Koyama were sowed in the pots, and the soil was waterlogged to a water depth of 3 cm. On the next day, a wettable powder formulation prepared according to Formulation Example 1 was diluted with water, and the dilution was added dropwise onto the water surface. The amount of application was an amount equivalent to 1000 g of the active ingredient per hectare. Thereafter, the plants were grown in a greenhouse, and on the 21st day after the treatment, the herbicidal effects were investigated according to the criteria described in Table 71.
# (§2) In addition, comparative compound A, comparative compound B, comparative compound C, and comparative compound D in the tables represent Compound Nos. 70, 34, 32, and 31, respectively, as described in EP-283261. The structural formulas of these compounds are presented below.
row,SMILES,"Herbicidal effect index, Echinochloa oryzicola"
1,"O=C1CCCC(O)=C1C(=O)c1ccc2ccccc2n1 [Comparative compound B, reference compound]",0
2,COc1cccc(-n2c(=O)c(C(=O)C3=C(O)CCCC3=O)cc3cccnc32)c1 [II-55],5
3,CCCn1c(=O)c(C(=O)C2=C(O)CCCC2=O)cc2cccnc21 [II-4],5
4,Cc1ccc(C)c(-n2c(=O)c(C(=O)C3=C(O)CCCC3=O)cc3cccnc32)c1 [II-58],5
5,COc1ccccc1-n1c(=O)c(C(=O)C2=C(O)CCCC2=O)cc2cccnc21 [II-54],5
6,O=C1CCCC(O)=C1C(=O)c1cc2cccnc2n(-c2cccc(F)c2)c1=O [II-43],5
7,"CC1(C)CC(=O)C(C(=O)c2cnc3ccccc3n2)=C(O)C1 [Comparative compound C, reference compound]",1

# Test system: Monochoria vaginalis (Burm. f.) Presl var. plantaginea (Roxb.) Solms-Laub.
# Assay: as above
# Type: in vivo
# Design: scale not given here
# Settings: 1000 g active ingredient per hectare, 21st day after treatment
# Method: as §1, §2
row,SMILES,"Herbicidal effect index, Monochoria vaginalis"
1,"O=C1CCCC(O)=C1C(=O)c1ccc2ccccc2n1 [Comparative compound B, reference compound]",0
2,COc1cccc(-n2c(=O)c(C(=O)C3=C(O)CCCC3=O)cc3cccnc32)c1 [II-55],5
3,CCCn1c(=O)c(C(=O)C2=C(O)CCCC2=O)cc2cccnc21 [II-4],5
4,Cc1ccc(C)c(-n2c(=O)c(C(=O)C3=C(O)CCCC3=O)cc3cccnc32)c1 [II-58],5
5,COc1ccccc1-n1c(=O)c(C(=O)C2=C(O)CCCC2=O)cc2cccnc21 [II-54],5
6,O=C1CCCC(O)=C1C(=O)c1cc2cccnc2n(-c2cccc(F)c2)c1=O [II-43],5
7,"CC1(C)CC(=O)C(C(=O)c2cnc3ccccc3n2)=C(O)C1 [Comparative compound C, reference compound]",2

# Test system: Scirpus juncoides Roxb. var. ohwianus. T. Koyama
# Assay: as above
# Type: in vivo
# Design: scale not given here
# Settings: 1000 g active ingredient per hectare, 21st day after treatment
# Method: as §1, §2
row,SMILES,"Herbicidal effect index, Scirpus juncoides"
1,"O=C1CCCC(O)=C1C(=O)c1ccc2ccccc2n1 [Comparative compound B, reference compound]",0
2,COc1cccc(-n2c(=O)c(C(=O)C3=C(O)CCCC3=O)cc3cccnc32)c1 [II-55],5
3,CCCn1c(=O)c(C(=O)C2=C(O)CCCC2=O)cc2cccnc21 [II-4],5
4,Cc1ccc(C)c(-n2c(=O)c(C(=O)C3=C(O)CCCC3=O)cc3cccnc32)c1 [II-58],5
5,COc1ccccc1-n1c(=O)c(C(=O)C2=C(O)CCCC2=O)cc2cccnc21 [II-54],5
6,O=C1CCCC(O)=C1C(=O)c1cc2cccnc2n(-c2cccc(F)c2)c1=O [II-43],5
7,"CC1(C)CC(=O)C(C(=O)c2cnc3ccccc3n2)=C(O)C1 [Comparative compound C, reference compound]",1

# Test system: Abutilon theophrasti medicus
# Assay: Test Example 2: herbicidal effects in farmland soil treatment
# Type: in vivo
# Design: scale not given here
# Settings: 1000 g active ingredient per hectare, 21st day after treatment
# Method: (§3) 80-cm^2 plastic pots were filled with farmland soil. Seeds of Abutilon theophrasti medicus and Amaranthus retroflexus were sowed in the pots, and soil was covered. A wettable powder formulation prepared according to Formulation Example 1 was diluted with water, and the dilution was uniformly sprayed on the soil surface with a small sprayer, in an amount equivalent to 1000 liters per hectare, such that 1000 g of the active ingredient was applied per hectare. Thereafter, the plants were grown in a greenhouse, and on the 21st day after the treatment, the herbicidal effects were investigated according to the criteria described in Table 71 shown above.
row,SMILES,"Herbicidal effect index, Abutilon thophrasti"
1,"O=C1CCCC(O)=C1C(=O)c1ccc2ccccc2n1 [Comparative compound B, reference compound]",2
2,COc1cccc(-n2c(=O)c(C(=O)C3=C(O)CCCC3=O)cc3cccnc32)c1 [II-55],5
3,CCCn1c(=O)c(C(=O)C2=C(O)CCCC2=O)cc2cccnc21 [II-4],5
4,Cc1ccc(C)c(-n2c(=O)c(C(=O)C3=C(O)CCCC3=O)cc3cccnc32)c1 [II-58],5
5,COc1ccccc1-n1c(=O)c(C(=O)C2=C(O)CCCC2=O)cc2cccnc21 [II-54],5
6,O=C1CCCC(O)=C1C(=O)c1cc2cccnc2n(-c2cccc(F)c2)c1=O [II-43],5
7,"CC1(C)CC(=O)C(C(=O)c2cnc3ccccc3n2)=C(O)C1 [Comparative compound C, reference compound]",0

# Test system: Amaranthus retroflexus
# Assay: as above
# Type: in vivo
# Design: scale not given here
# Settings: 1000 g active ingredient per hectare, 21st day after treatment
# Method: as §3
row,SMILES,"Herbicidal effect index, Amaranthus retroflexus"
1,"O=C1CCCC(O)=C1C(=O)c1ccc2ccccc2n1 [Comparative compound B, reference compound]",2
2,COc1cccc(-n2c(=O)c(C(=O)C3=C(O)CCCC3=O)cc3cccnc32)c1 [II-55],5
3,CCCn1c(=O)c(C(=O)C2=C(O)CCCC2=O)cc2cccnc21 [II-4],5
4,Cc1ccc(C)c(-n2c(=O)c(C(=O)C3=C(O)CCCC3=O)cc3cccnc32)c1 [II-58],5
5,COc1ccccc1-n1c(=O)c(C(=O)C2=C(O)CCCC2=O)cc2cccnc21 [II-54],5
6,O=C1CCCC(O)=C1C(=O)c1cc2cccnc2n(-c2cccc(F)c2)c1=O [II-43],5
7,"CC1(C)CC(=O)C(C(=O)c2cnc3ccccc3n2)=C(O)C1 [Comparative compound C, reference compound]",3

# Test system: Abutilon theophrasti medicus
# Assay: Test Example 3: herbicidal effects in farmland foliar treatment
# Type: in vivo
# Design: scale not given here
# Settings: 1000 g active ingredient per hectare, 14th day after treatment
# Method: (§4) 80-cm^2 plastic pots were filled with farmland soil. Seeds of Echinochloa crus-galli (L.) P. Beauv. var. crus-galli, Abutilon theophrasti medicus, and Amaranthus retroflexus were sowed in the pots, and the plants were grown for two weeks in a greenhouse. A wettable powder formulation prepared according to Formulation Example 1 was diluted with water, and the dilution was applied by foliar treatment by spraying with a small sprayer over the whole plant from the upper part, in an amount equivalent to 1000 liters per hectare, such that 1000 g of the active ingredient was applied per hectare. Thereafter, the plants were grown in a greenhouse, and on the 14th day after the treatment, the herbicidal effects were investigated according to the criteria described in Table 71 shown above.
row,SMILES,"Herbicidal effect index, Abutilon theoprasti"
1,"O=C1CCCC(O)=C1C(=O)c1ccc2ccccc2n1 [Comparative compound B, reference compound]",5
2,COc1cccc(-n2c(=O)c(C(=O)C3=C(O)CCCC3=O)cc3cccnc32)c1 [II-55],5
3,CCCn1c(=O)c(C(=O)C2=C(O)CCCC2=O)cc2cccnc21 [II-4],5
4,Cc1ccc(C)c(-n2c(=O)c(C(=O)C3=C(O)CCCC3=O)cc3cccnc32)c1 [II-58],5
5,COc1ccccc1-n1c(=O)c(C(=O)C2=C(O)CCCC2=O)cc2cccnc21 [II-54],5
6,O=C1CCCC(O)=C1C(=O)c1cc2cccnc2n(-c2cccc(F)c2)c1=O [II-43],5
7,"CC1(C)CC(=O)C(C(=O)c2cnc3ccccc3n2)=C(O)C1 [Comparative compound C, reference compound]",4

# Test system: Amaranthus retroflexus
# Assay: as above
# Type: in vivo
# Design: scale not given here
# Settings: 1000 g active ingredient per hectare, 14th day after treatment
# Method: as §4
row,SMILES,"Herbicidal effect index, Amaranthus retroflexus"
1,"O=C1CCCC(O)=C1C(=O)c1ccc2ccccc2n1 [Comparative compound B, reference compound]",1
2,COc1cccc(-n2c(=O)c(C(=O)C3=C(O)CCCC3=O)cc3cccnc32)c1 [II-55],5
3,CCCn1c(=O)c(C(=O)C2=C(O)CCCC2=O)cc2cccnc21 [II-4],5
4,Cc1ccc(C)c(-n2c(=O)c(C(=O)C3=C(O)CCCC3=O)cc3cccnc32)c1 [II-58],5
5,COc1ccccc1-n1c(=O)c(C(=O)C2=C(O)CCCC2=O)cc2cccnc21 [II-54],5
6,O=C1CCCC(O)=C1C(=O)c1cc2cccnc2n(-c2cccc(F)c2)c1=O [II-43],5
7,"CC1(C)CC(=O)C(C(=O)c2cnc3ccccc3n2)=C(O)C1 [Comparative compound C, reference compound]",0

# Test system: Echinochloa crus-galli (L.) P. Beauv. var. crus-galli
# Assay: as above
# Type: in vivo
# Design: scale not given here
# Settings: 1000 g active ingredient per hectare, 14th day after treatment
# Method: as §4
row,SMILES,"Herbicidal effect index, Echinochloa crus-galli"
1,"O=C1CCCC(O)=C1C(=O)c1ccc2ccccc2n1 [Comparative compound B, reference compound]",0
2,COc1cccc(-n2c(=O)c(C(=O)C3=C(O)CCCC3=O)cc3cccnc32)c1 [II-55],5
3,CCCn1c(=O)c(C(=O)C2=C(O)CCCC2=O)cc2cccnc21 [II-4],5
4,Cc1ccc(C)c(-n2c(=O)c(C(=O)C3=C(O)CCCC3=O)cc3cccnc32)c1 [II-58],5
5,COc1ccccc1-n1c(=O)c(C(=O)C2=C(O)CCCC2=O)cc2cccnc21 [II-54],5
6,O=C1CCCC(O)=C1C(=O)c1cc2cccnc2n(-c2cccc(F)c2)c1=O [II-43],5
7,"CC1(C)CC(=O)C(C(=O)c2cnc3ccccc3n2)=C(O)C1 [Comparative compound C, reference compound]",0

# Test system: Echinochloa crus-galli
# Assay: Test Example 2: herbicidal effects in farmland soil treatment
# Type: in vivo
# Design: scale not given here
# Settings: 1000 g active ingredient per hectare, 21st day after treatment
row,SMILES,"Herbicidal effect index, Echinochloa crus-galli"
1,"O=C1CCCC(O)=C1C(=O)c1ccc2ccccc2n1 [Comparative compound B, reference compound]",3
2,COc1cccc(-n2c(=O)c(C(=O)C3=C(O)CCCC3=O)cc3cccnc32)c1 [II-55],5
3,CCCn1c(=O)c(C(=O)C2=C(O)CCCC2=O)cc2cccnc21 [II-4],5
4,Cc1ccc(C)c(-n2c(=O)c(C(=O)C3=C(O)CCCC3=O)cc3cccnc32)c1 [II-58],5
5,COc1ccccc1-n1c(=O)c(C(=O)C2=C(O)CCCC2=O)cc2cccnc21 [II-54],5
6,O=C1CCCC(O)=C1C(=O)c1cc2cccnc2n(-c2cccc(F)c2)c1=O [II-43],5
7,"CC1(C)CC(=O)C(C(=O)c2cnc3ccccc3n2)=C(O)C1 [Comparative compound C, reference compound]",2

# Test system: Setaria viridis
# Assay: as above
# Type: in vivo
# Design: scale not given here
# Settings: 1000 g active ingredient per hectare, 21st day after treatment
row,SMILES,"Herbicidal effect index, Setaria viridis"
1,"O=C1CCCC(O)=C1C(=O)c1ccc2ccccc2n1 [Comparative compound B, reference compound]",0
2,COc1cccc(-n2c(=O)c(C(=O)C3=C(O)CCCC3=O)cc3cccnc32)c1 [II-55],5
3,CCCn1c(=O)c(C(=O)C2=C(O)CCCC2=O)cc2cccnc21 [II-4],4
4,Cc1ccc(C)c(-n2c(=O)c(C(=O)C3=C(O)CCCC3=O)cc3cccnc32)c1 [II-58],5
5,COc1ccccc1-n1c(=O)c(C(=O)C2=C(O)CCCC2=O)cc2cccnc21 [II-54],5
6,O=C1CCCC(O)=C1C(=O)c1cc2cccnc2n(-c2cccc(F)c2)c1=O [II-43],5
7,"CC1(C)CC(=O)C(C(=O)c2cnc3ccccc3n2)=C(O)C1 [Comparative compound C, reference compound]",0

# Test system: Setaria viridis
# Assay: Test Example 3: herbicidal effects in farmland foliar treatment
# Type: in vivo
# Design: scale not given here
# Settings: 1000 g active ingredient per hectare, 14th day after treatment
row,SMILES,"Herbicidal effect index, Setaria viridis"
1,"O=C1CCCC(O)=C1C(=O)c1ccc2ccccc2n1 [Comparative compound B, reference compound]",0
2,COc1cccc(-n2c(=O)c(C(=O)C3=C(O)CCCC3=O)cc3cccnc32)c1 [II-55],5
3,CCCn1c(=O)c(C(=O)C2=C(O)CCCC2=O)cc2cccnc21 [II-4],4
4,Cc1ccc(C)c(-n2c(=O)c(C(=O)C3=C(O)CCCC3=O)cc3cccnc32)c1 [II-58],5
5,COc1ccccc1-n1c(=O)c(C(=O)C2=C(O)CCCC2=O)cc2cccnc21 [II-54],5
6,O=C1CCCC(O)=C1C(=O)c1cc2cccnc2n(-c2cccc(F)c2)c1=O [II-43],5
7,"CC1(C)CC(=O)C(C(=O)c2cnc3ccccc3n2)=C(O)C1 [Comparative compound C, reference compound]",0
